From patent US8106051B2, “Utilities of amide compounds” (Shionogi & Co., Ltd., priority 2001, dated 2012) come the findings set out here.

Series [1] has as its system promoter region of the gene encoding human apoAI. As to the kind of experiment: Activity to enhance the expression of human apoAI (apoAI promoter-luciferase reporter in HepG2 cells). Conditions: HepG2 cells stably expressing human apoAI promoter-firefly luciferase reporter; 24 hours incubation; 0 to 10 μg/mL; control DMSO. The series is classed as cell-based. How it is done:
The promoter region of the gene encoding human apoAI was isolated, and ligated upstream the structure gene of firefly luciferase to construct a reporter plasmid. The reporter plasmid and a marker plasmid conferring the neomycin resistance were co-infected to cell lines derived from human hepatoma, HepG2 cells, and the cell lines were incubated in a selection medium comprising DMEM medium containing 10% fetal calf serum supplemented with G418 (Final concentration: 0.7 mg/mL, Gibco) to give established strains that stably expressed the reporter molecule. The strains were seeded to a 96-well culture plates at a density of 50,000 cells per well, and incubated for 48 hours at 37° C. under an atmosphere of 5% carbon dioxide. Then, a solution of the compounds according to the invention in DMSO was added to the wells at final concentrations of 0 to 10 μg/mL. After further incubation for 24 hours, the cells were added with a luciferase assay reagent (Piccagene LT 7.5 registered trade mark, Toyo Ink, KK), and the luciferase activity was determined using a luminometer (MicroBeta™ TRILUX, 1 sec/well, Wallac). The concentration of the compounds, which intensified the luciferase activity twice compared to that of control (DMSO without any compound of the invention added) was set as the minimal effective dose (MED).
(In general: In a reporter assay the amount or activity of a reporter protein is the signal.)

On to `Cc1ccc(NC(=O)c2ccc(Cl)cc2)cc1` [Ib-17, 4-Chloro-N-(4-tolyl)benzamide], for which the “MED (minimal effective dose): concentration which intensified the luciferase activity twice compared to that of control” value in series [1] came to 0.30 µg/mL. By melting point is commonly meant the temperature of the solid-liquid transition. Compound `O=C(C=Cc1ccccc1)Nc1cnc2ccccc2n1` [Ia-9, 3-Phenyl-N-quinoxalin-2-yl-acrylamide] gave a melting point of 177 to 178 °C.
